According to article PMC7466059, “Synthesis and Ex Vivo Trans-Corneal Permeation of Penetratin Analogues as Ophthalmic Carriers: Preliminary Results” (Pharmaceutics, 2020):

How the values were obtained:
[1] = Ex vivo trans-corneal permeation, Franz-type diffusion cells; type: in vitro ADME, pig; settings: ex vivo porcine cornea, epithelial side to donor, area 0.2 cm^2; donor 100 µM, 200 µL; donor and receiving solutions PBS pH 7.4; 37 °C, 6 h, hourly sampling; fluorescence 485/535 nm; mean ± sd, n = 3-4
Protocol: Permeation experiments across freshly porcine cornea were performed following a method previously reported. In detail, transparent porcine corneas were isolated from fresh pig eyes (breed: Large White and Landrace; weight: 145–190 kg; age: 10–11 months; sex: female and male; Macello Annoni SpA, Busseto, Italy) and supported by glass Franz-type diffusion cells, having a permeation area of 0.2 cm^2. The epithelial side was in contact with the donor, i.e., 200 µL of aqueous solution containing a peptide: each concentration and solvent are indicated in Table 2. Donor concentrations were selected based on different solubility and analytical sensitivity (see paragraph 2.4 and Table S2). For some peptides, the solubilization was improved by dissolving the raw material using small amount of DMSO (final concentration less than 5% v/v), and then PBS or PBS+0.1% BSA were alternately added.
To fill the receptor compartment, around 4 mL of degassed PBS or PBS+0.1% BSA was used (see Table 2), being kept at 37 °C and maintained under magnetic stirring to avoid any boundary layer effect. The presence of 0.1% BSA aids in preventing peptides aggregation. Permeation experiments lasted 6 h, and for quantification purposes, 200 µL of the receiving solution were collected every hour and reintegrated with fresh medium. Each condition was replicated between 3 and 4 times, using cornea isolated from different animals.
Permeation samples were analysed without preliminary separation by fluorescence, using a Spark 10M microplate reader (Tecan Trading AG, Switzerland); excitation and emission wavelengths were 485 nm and 535 nm, respectively. Standard solutions were prepared in PBS pH 7.4 or in PBS containing BSA 0.1%. RSD% (relative standard deviation %) was lower than 10%, while ER% (relative error %) resulted lower than 15%.
The amount of CPP permeated across the cornea (nmol/cm^2) is plotted against time (hour): the slope of the regression line at steady state represents the trans-corneal flux J (nmol/cm^2 h). The apparent permeability coefficient Papp (cm/s) is then calculated as Equation (1): Papp = J/c(1) being c (µM) the concentration of the donor solution. Papp allows for a direct comparison among permeants studied using different donor concentrations.

[2] = parameters: method as in PMID 24521351, PMID 28927928; settings: literature report; cited from earlier work

CC[C@H](C)[C@H](NC(=O)[C@H](CCCCN)NC(=O)[C@@H](NC(=O)[C@H](CCC(N)=O)NC(=O)[C@H](CCCNC(=N)N)NC(=O)c1ccc2c(c1)C(=O)OC21c2ccc(O)cc2Oc2cc(O)ccc21)[C@@H](C)CC)C(=O)N[C@@H](Cc1c[nH]c2ccccc12)C(=O)N[C@@H](Cc1ccccc1)C(=O)N[C@@H](CCC(N)=O)C(=O)N[C@@H](CC(N)=O)C(=O)N[C@@H](CCCNC(=N)N)C(=O)N[C@@H](CCCNC(=N)N)C(=O)N[C@@H](CCSC)C(=O)N[C@@H](CCCCN)C(=O)N[C@@H](Cc1c[nH]c2ccccc12)C(=O)N[C@@H](CCCCN)C(=O)N[C@@H](CCCCN)C(N)=O [reference compound]
Papp (apparent permeability coefficient) [1]: 4.54 ± 2.01 10^−6 cm/s
ocular toxicity [2]: lacking in ocular toxicity
